Test system: soybeans (Fukuyutaka)
Test: Electron transfer rate (ETR) by PAM fluorometry after foliar spraying and paraquat application
Assay type: in vivo, soybean
Conditions: 24 h after paraquat
From the text: In FIG. 1 to FIG. 18 related to the examples, the relative value indicated above each bar chart in each drawing means a relative value when T1 in each drawing is 100. When an X % increase (relative to T2) is indicated above each bar chart in each drawing, it means that the value increases by X % relative to the value of T2 in each drawing. When a Y % decrease (relative to T2) is indicated above each bar chart in each drawing, it means that the value decreases by Y % relative to the value of T2 in each drawing.
A 9 cm poly pot was filled with culture soil and seeded with three soybeans (Fukuyutaka).
After seeding, the soybeans were cultivated in an incubator set in a light period (6:00-18:00, temperature 26° C., illuminance 120 μmol/m^2·s) and a dark period (18:00-6:00, temperature 18° C.). After germination, they were thinned to one plant.
(§1) After the first true leaf development, in each of the following treatments, foliar spraying of the following liquid (composition for reducing reactive oxygen) was conducted on each plant (application of the composition for reducing reactive oxygen). Twenty-four hours after the foliar spraying, foliar spraying of a paraquat aqueous solution with SILWET L-77 added to make a 1,000-fold dilution was conducted on each plant, except for a Control (T1) (paraquat application).
Electron transfer rate (ETR) was measured by pulse amplitude modulated fluorometry (PAM fluorometry) twenty-four hours after the paraquat application. In addition, twenty-four hours after the paraquat application, a SPAD value was measured using a chlorophyll meter.
as §1, with “for the” for “for a”
ETR was measured by the PAM fluorometry twenty-four hours after the paraquat application. In addition, twenty-four hours after the paraquat application, a SPAD value was measured using a chlorophyll meter.
After seeding, the soybeans were cultivated in an incubator set in a light period (6:00-18:00, temperature 26° C., illuminance 120 μmol/m^2·s)

Substance: sophorolipid [SL]
- ETR compared with T2 (Experimental Example 4, T3: SL diluted 1000 times, PAR 1496): slightly increased

Substance: surfactin Na [SF]
- ETR compared with T2 (Experimental Example 3, T3: SF diluted 10000 times, PAR 1496): slightly increased
- ETR compared with T2 (Experimental Example 6, T3: SF diluted 10000 times, PAR 1496): slightly increased
- ETR compared with T2 (Experimental Example 9, T3: SF diluted 2000 times, PAR 1455): significantly increased

— patent US20250248403A1, “COMPOSITION FOR REDUCING AMOUNT OF REACTIVE OXYGEN” (KANEKA CORPORATION, priority 2022, published 2025)
